The values below come from the Deep4Chem optical property database.

Molecules are shown by their SMILES.

A short description of this data set: solvent given as SMILES.

As for `c1ccc(-c2ccc(-c3ccc(-n4c5ccccc5c5ccccc54)cc3)c3nsnc23)cc1`, the fluorescence lifetime is, setting by setting: (in C1CCOC1) 7.52 ns; (in CC(C)=O) 5.2 ns; (in CCCCCC) 5.87 ns; (in CCOCC) 7.2 ns.

In turn, `COc1cccc(/C=C/c2ccccc2)c1` displayed a fluorescence lifetime (in CC#N) of 0.93 ns.

Turning to `O=S1(=O)c2ccccc2C2(c3cc(-c4ccc(-n5c6ccccc6c6ccccc65)cc4)ccc3-c3ccc(-c4ccc(-n5c6ccccc6c6ccccc65)cc4)cc32)c2ccccc21`, where the note is “in ClCCl”, the fluorescence lifetime was 0.9 ns.

With `Nc1cc(N)cc(-c2nc3ccccc3s2)c1`, the fluorescence lifetime runs as follows: (in C1CCCCC1) 4.63 ns; (in C1COCCO1) 4.09 ns; (in CC#N) 4.14 ns; (in CC(C)O) 6.4 ns; (in CCOC(C)=O) 3.84 ns; (in CCOCC) 3.2 ns. The compound also returned a fluorescence lifetime (in CO) of 2.07 ns and a fluorescence lifetime (in O) of 1.32 ns.

As for `CCC12C(=C3C(=C4c5ccc(-c6ccc(C(C)=O)cc6)cc5S(=O)(=O)C41CC)C(F)(F)C(F)(F)C3(F)F)c1ccc(-c3ccc(C(C)=O)cc3)cc1S2(=O)=O` (stereo not given), the fluorescence lifetime (in C1COCCO1) turned out to be 2.8 ns.

In turn, `CCN1C(=CC2=C([O-])C(=CC3=[N+](CC)c4ccccc4C3(C)C)C2=O)C(C)(C)c2ccccc21` returned a fluorescence lifetime (in CO) of 0.2 ns and a fluorescence lifetime (in ClC(Cl)Cl) of 1.52 ns.

`CCN(CC)c1ccc2cc(-c3nc4ccccc4n3C)c(=O)oc2c1` showed a fluorescence lifetime (in CC#N) of 2.8 ns.

`CC(C)(C)c1ccc2c(c1)c1cc(C(C)(C)C)ccc1n2-c1ccc(C#Cc2ccc3c4ccc(C#Cc5ccc(-n6c7ccc(C(C)(C)C)cc7c7cc(C(C)(C)C)ccc76)cc5)cc4n(-c4ccc(C(F)(F)F)cc4)c3c2)cc1` yielded a fluorescence lifetime (in ClCCl) of 0.1 ns.

Turning to `O=C(c1ccc(N2c3ccccc3[Si](c3ccccc3)(c3ccccc3)c3ccccc32)cc1)c1ccc(N2c3ccccc3[Si](c3ccccc3)(c3ccccc3)c3ccccc32)cc1`, under “in c1cc(-n2c3ccccc3c3ccccc32)cc(-n2c3ccccc3c3ccccc32)c1”, the fluorescence lifetime amounted to 134 ns.

For `CSc1sc(C(C)=O)c2nn[nH]c(=O)c12`, the fluorescence lifetime is 0.42 ns (in C1CCOC1); 0.75 ns (in CC#N); 0.41 ns (in CCO); 0.25 ns (in CN(C)C=O); 0.33 ns (in CO); 0.15 ns (in CS(C)=O).

As for `CCCCc1cc(-c2cccc(COC)c2)oc1-c1cccc(-c2cc(CCCC)c(-c3cccc(-c4cc(CCCC)c(-c5cccc(-c6oc(-c7cccc(-c8oc(-c9cccc(-c%10oc(-c%11cccc(COC)c%11)cc%10CCCC)c9)cc8CCCC)c7)cc6CCCC)c5)o4)c3)o2)c1`, where the note is “in ClC(Cl)Cl”, the fluorescence lifetime was determined as 1.35 ns.

Consider `CCC(CC)n1c2ccccc2c2cc3c(cc21)c1ccccc1n3C(CC)CC`, for which, under “in ClC(Cl)Cl”, the fluorescence lifetime came out at 3.05 ns.

Where the note is “in C1CCCCC1”, `c1ccc2c(c1)[nH]c1cccnc12` gave a fluorescence lifetime of 4.6 ns.

As for `Cc1ccc(C(=O)c2c(C)c3ccc4cccc5c6cccc7ccc2c(c76)c3c45)cc1`, the fluorescence lifetime (in ClCCl) was found to be 3.6 ns.

Where the note is “in CCCO”, `CCOC(=O)c1ccc2c(c1)n(C)c1c3ccc(C(=O)OCC)cc3n(C)c21` showed a fluorescence lifetime of 7.8 ns.

As for `CC1=[N+]2C(=C(c3ccc(Br)cc3)c3ccc(C)n3[B-]2(F)F)C=C1c1cc2n(c1)[B-](F)(F)[N+]1=CC=CC1=C2c1c(C)cc(C)cc1C`, the fluorescence lifetime turned out to be 3.01 ns (in C1CCCCC1) and 0.938 ns (in CCOC(C)=O).

Compound `N#Cc1ccc2nc3c(=O)[nH]c(=O)[nH]c3nc2c1` displayed a fluorescence lifetime (in ClCCCl) of 0.16 ns.

For the compound `CSc1nc(-c2ccc(-n3c4ccccc4c4ccccc43)cc2)cc(-c2ccc(-n3c4ccccc4c4ccccc43)cc2)n1`, the fluorescence lifetime is 3.22 ns (in C1CCOC1), 7.39 ns (in CN(C)C=O), 1.45 ns (in Cc1ccccc1) and 3.24 ns (in ClC(Cl)Cl).

As for `CN(C)c1ccc(-c2nc3cccnc3[nH]2)cc1`, the fluorescence lifetime was determined as 1.08 ns (in C1CCCCC1) and 1.58 ns (in CC#N).

For `COc1ccc(-c2nc(C(C)=O)c(C)o2)cc1`, the fluorescence lifetime was 3.92 ns (in CC#N); 2.31 ns (in CCO); 4.53 ns (in CCOC(C)=O); 1.79 ns (in CCOCC); 1.7 ns (in ClCCl).
